Earlier results in PubChem BioAssay AID1259409 (Chemical Carcinogenesis Research Information System (CCRIS), 2018).
Where “and” joins values, the source holds several entries; their conditions need not be identical. Equal values may be shown once.

Tested on: rodent chemically induced tumor inhibition, incidence and multiplicity
Assay: CCRIS tumor inhibitor studies
Conditions: Promoter: NONE USED
Description: The CCRIS database contains chemical records with carcinogenicity, mutagenicity, tumor promotion, and tumor inhibition test results. It was developed by the National Cancer Institute (NCI). Data are derived from studies cited in primary journals, current awareness tools, NCI reports, and other sources. Test results have been reviewed by experts in carcinogenesis and mutagenesis.
CCRIS provides historical information from the years 1985 - 2011. It is no longer updated.
This is an archive assay for CCRIS tumor inhibitor studies.

For `N#CO`, the “tumour outcome (control, treated, inhibition, significance)” value (Carcinogen: 1,2-DIMETHYLHYDRAZINE, 540-73-8, Dose [Inhibitor]: 0.013 MMOL/G IN DIET BEGINNING 1 WK POST LAST CARCINOGEN DOSE (STUDY DURATION: 42 WK), Route [Inhibitor]: ORAL, Species: MOUSE, Strain/Sex: CF-1/FEMALE, Target Tissue: Type of Lesion: LARGE BOWEL: ADENOCARCINOMA, Dose [Carcinogen]: 0.6 MG IN 0.2 ML EDTA SOLUTION (PH 6.5) 2X WK FOR 8 WKS.) is listed as 20%, 0%, 100%, p<0.05, the “tumour outcome (control, treated, inhibition, significance)” value (Carcinogen: 1,2-DIMETHYLHYDRAZINE, 540-73-8, Dose [Inhibitor]: 0.013 MMOL/G IN DIET BEGINNING 1 WK POST LAST CARCINOGEN DOSE (STUDY DURATION: 42 WK), Route [Inhibitor]: ORAL, Species: MOUSE, Strain/Sex: CF-1/FEMALE, Target Tissue: Type of Lesion: LARGE BOWEL: ADENOMA, Dose [Carcinogen]: 0.6 MG IN 0.2 ML EDTA SOLUTION (PH 6.5) 2/WK FOR 8 WK) is listed as 41%, 18%, 56%, not significant and the “tumour outcome (control, treated, inhibition, significance)” value (Carcinogen: 1,2-DIMETHYLHYDRAZINE, 540-73-8, Dose [Inhibitor]: 0.026 MMOL/G IN DIET BEGINNING 1 WK POSE LAST CARCINOGEN DOSE (STUDY DURATION: 42 WK), Route [Inhibitor]: ORAL, Species: MOUSE, Strain/Sex: CF-1/FEMALE, Target Tissue: Type of Lesion: LARGE BOWEL: ADENOMA, Dose [Carcinogen]: 0.6 MG IN 0.2 ML EDTA SOLUTION (PH 6.5) 2/WK FOR 8 WK) is listed as 41%, 17%, 58%, not significant. For the same molecule, the “tumour outcome (control, treated, inhibition, significance)” value (Carcinogen: 1,2-DIMETHYLHYDRAZINE, 540-73-8, Dose [Inhibitor]: 0.026 MMOL/G IN DIET BEGINNING 1 WK POST LAST CARCINOGEN DOSE (STUDY DURATION: 42 WK), Route [Inhibitor]: ORAL, Species: MOUSE, Strain/Sex: CF-1/FEMALE, Target Tissue: Type of Lesion: LARGE BOWEL: ADENOCARCINOMA, Dose [Carcinogen]: 0.6 MG IN 0.2 ML EDTA SOLUTION (PH 6.5) 2/WK FOR 8 WK) was 15%, 6%, 60%, not significant and 20%, 6%, 70%, not significant and 18%, 6%, 67%, not significant, the “tumour outcome (control, treated, inhibition, significance)” value (Carcinogen: 1,2-DIMETHYLHYDRAZINE, 540-73-8, Dose [Inhibitor]: 0.026 MMOL/G IN DIET BEGINNING 1 WK POST LAST CARCINOGEN DOSE (STUDY DURATION: 42 WK), Route [Inhibitor]: ORAL, Species: MOUSE, Strain/Sex: CF-1/FEMALE, Target Tissue: Type of Lesion: LARGE BOWEL: ADENOMA, Dose [Carcinogen]: 0.6 MG IN 0.2 ML EDTA SOLUTION (PH 6.5) 2/WK FOR 8 WK) was 33%, 11%, 67%, not significant and 37%, 14%, 62%, p<0.05 and the “tumour outcome (control, treated, inhibition, significance)” value (Carcinogen: 7,12-DIMETHYLBENZ(A)ANTHRACENE, 57-97-6, Dose [Inhibitor]: 0.013 MMOL/G IN DIET BEGINNING 1 WK AFTER CARCINOGEN ADMINISTRATION (STUDY DURATION: 18 WK), Route [Inhibitor]: ORAL, Species: RAT, Strain/Sex: SPRAGUE-DAWLEY/FEMALE, Target Tissue: Type of Lesion: MAMMARY GLAND: TUMOR, Dose [Carcinogen]: 12 MG DMBA IN 1.0 ML OLIVE OIL ONCE) was 100%, 77%, 23%, p<0.01. The “tumour outcome (control, treated, inhibition, significance)” value (Carcinogen: 7,12-DIMETHYLBENZ(A)ANTHRACENE, 57-97-6, Dose [Inhibitor]: 0.026 MMOL/G IN DIET BEGINNING 1 WK AFTER CARCINOGEN ADMINISTRATION (STUDY DURATION: 16 WK), Route [Inhibitor]: ORAL, Species: RAT, Strain/Sex: SPRAGUE-DAWLEY/FEMALE, Target Tissue: Type of Lesion: MAMMARY GLAND: TUMOR, Dose [Carcinogen]: 12 MG DMBA IN 1.0 ML OLIVE OIL ONCE) was 100%, 60%, 40%, p<0.001 and the “tumour outcome (control, treated, inhibition, significance)” value (Carcinogen: 7,12-DIMETHYLBENZ(A)ANTHRACENE, 57-97-6, Dose [Inhibitor]: 0.026 MMOL/G IN DIET BEGINNING 1 WK AFTER CARCINOGEN ADMINISTRATION (STUDY DURATION: 18 WK), Route [Inhibitor]: ORAL, Species: RAT, Strain/Sex: SPRAGUE-DAWLEY/FEMALE, Target Tissue: Type of Lesion: MAMMARY GLAND: TUMOR, Dose [Carcinogen]: 12 MG DMBA IN 1.0 ML OLIVE OIL ONCE) was 94%, 63%, 33%, p<0.05 and 100%, 63%, 37%, p<0.01.
In the case of `CCC1OC(C)=C(O)C1=O` (stereo not drawn), the “tumour outcome (control, treated, inhibition, significance)” value (Carcinogen: BENZO[A]PYRENE, 50-32-8, Dose [Inhibitor]: 0, 25 PPM IN DIET BEGINNING POST CARCINOGEN TREATMENT AND CONTINUING FOR DURATION OF STUDY (STUDY DURATION: 148 D), Route [Inhibitor]: ORAL, Species: MOUSE, Strain/Sex: ICR/FEMALE, Target Tissue: Type of Lesion: FORESTOMACH: TUMOR, Dose [Carcinogen]: 1.5 MG IN 0.2 ML CORN OIL 1/WK FOR 4 WK) is listed as 100%, 76%, 24%, not calculated, the “tumour outcome (control, treated, inhibition, significance)” value (Carcinogen: BENZO[A]PYRENE, 50-32-8, Dose [Inhibitor]: 0, 50 PPM IN DIET BEGINNING POST CARCINOGEN TREATMENT AND CONTINUING FOR DURATION OF STUDY (STUDY DURATION: 148 D), Route [Inhibitor]: ORAL, Species: MOUSE, Strain/Sex: ICR/FEMALE, Target Tissue: Type of Lesion: FORESTOMACH: TUMOR, Dose [Carcinogen]: 1.5 MG IN 0.2 ML CORN OIL 1/WK FOR 4 WK) is listed as 100%, 54%, 46%, not calculated and the “tumour outcome (control, treated, inhibition, significance)” value (Carcinogen: BENZO[A]PYRENE, 50-32-8, Dose [Inhibitor]: 0, 75 PPM IN DIET BEGINNING POST CARCINOGEN TREATMENT AND CONTINUING FOR DURATION OF STUDY (STUDY DURATION: 148 D), Route [Inhibitor]: ORAL, Species: MOUSE, Strain/Sex: ICR/FEMALE, Target Tissue: Type of Lesion: FORESTOMACH: TUMOR, Dose [Carcinogen]: 1.5 MG IN 0.2 ML CORN OIL 1/WK FOR 4 WK) is listed as 100%, 75%, 25%, not calculated.
In the case of `C#C[C@]1(O)CC[C@H]2[C@@H]3CCc4cc(O)ccc4[C@H]3[C@H](OC)C[C@@]21C`, the “tumour outcome (control, treated, inhibition, significance)” value (Carcinogen: N-METHYL-N-NITROSOUREA, 684-93-5, Dose [Inhibitor]: 0, 24 UG 3/WK FOR THE DURATION OF STUDY BEGINNING 7 D PRIOR TO CARCINOGEN DOSE (STUDY DURATION: 187 D), Route [Inhibitor]: SUBCUTANEOUS, Species: RAT, Strain/Sex: SPRAGUE-DAWLEY/FEMALE, Target Tissue: Type of Lesion: MAMMARY GLAND: TUMOR, Dose [Carcinogen]: 50 MG/KG BW ONCE) is given as 100%, 90%, 10%, not significant and the “tumour outcome (control, treated, inhibition, significance)” value (Carcinogen: N-METHYL-N-NITROSOUREA, 684-93-5, Dose [Inhibitor]: 10 UG DAILY STARTING SIMULTANEOUSLY WITH CARCINOGEN TREATMENT AND CONTINUING FOR DURATION OF STUDY (STUDY DURATION: 145, Route [Inhibitor]: INJECTION, Species: RAT, Strain/Sex: SPRAGUE-DAWLEY/FEMALE, Target Tissue: Type of Lesion: MAMMARY GLAND: TUMOR, Dose [Carcinogen]: 5 MG/100 G BW AT 0, 4 AND 8 WK OF STUDY) is given as 86%, 54%, 37%, not calculated.
In the case of `CCCCCCCc1c(O)cc(CC=C(C)C)c(O)c1C=O`, the “tumour outcome (control, treated, inhibition, significance)” value (Carcinogen: AZOXYMETHANE, 25843-45-2, Dose [Inhibitor]: 0, 0.02% IN DIET IN WK 1-3 OF STUDY FOLLOWED BY BASAL DIET FOR DURATION OF STUDY (STUDY DURATION: 1 YR), Route [Inhibitor]: ORAL, Species: RAT, Strain/Sex: F344/MALE, Target Tissue: Type of Lesion: LARGE INTESTINE: ADENOCARCINOMA, Dose [Carcinogen]: 15 MG/KG BW 1/WK IN WK 1 AND 2 OF STUDY) is given as 13/27 (48%), 6/30 (20%), 58%, not significant, the “tumour outcome (control, treated, inhibition, significance)” value (Carcinogen: AZOXYMETHANE, 25843-45-2, Dose [Inhibitor]: 0, 0.02% IN DIET IN WK 1-3 OF STUDY FOLLOWED BY BASAL DIET FOR DURATION OF STUDY (STUDY DURATION: 1 YR), Route [Inhibitor]: ORAL, Species: RAT, Strain/Sex: F344/MALE, Target Tissue: Type of Lesion: LARGE INTESTINE: ADENOMA, Dose [Carcinogen]: 15 MG/KG BW 1/WK IN WK 1 AND 2 OF STUDY) is given as 6/27 (22%), 4/30 (13%), 41%, not significant and the “tumour outcome (control, treated, inhibition, significance)” value (Carcinogen: AZOXYMETHANE, 25843-45-2, Dose [Inhibitor]: 0, 0.02% IN DIET IN WK 1-3 OF STUDY FOLLOWED BY BASAL DIET FOR DURATION OF STUDY (STUDY DURATION: 1 YR), Route [Inhibitor]: ORAL, Species: RAT, Strain/Sex: F344/MALE, Target Tissue: Type of Lesion: SMALL INTESTINE: ADENOCARCINOMA, Dose [Carcinogen]: 15 MG/KG BW 1/WK IN WK 1 AND 2 OF STUDY) is given as 6/27 (22%), 5/30 (17%), 23%, not significant.
For `CC1=C(/C=C/C(C)=C/C=C/C(C)=C/C(=O)Nc2nn[nH]n2)C(C)(C)CCC1`, the “tumour outcome (control, treated, inhibition, significance)” value (Carcinogen: N-BUTYL-N-(4-HYDROXYBUTYL)NITROSAMINE, 3817-11-6, Dose [Inhibitor]: 1.5 MMOL/KG DIET DAILY FOR 159 D STARTING 1 WK AFTER THE FINAL CARCINOGEN DOSE (STUDY DURATION: 216 D), Route [Inhibitor]: ORAL, Species: MOUSE, Strain/Sex: BDF/MALE, Target Tissue: Type of Lesion: URINARY BLADDER: TRANSITIONAL CELL CARCINOMA, Dose [Carcinogen]: 7.5 MG 1/WK FOR 8 WK) is listed as 29/98 (30%), 15/97 (16%), 47%, p<0.05 and the “tumour outcome (control, treated, inhibition, significance)” value (Carcinogen: N-BUTYL-N-(4-HYDROXYBUTYL)NITROSAMINE, 3817-11-6, Dose [Inhibitor]: 1.5 MMOL/KG/D IN DIET FOR 159 D STARTING 1 WK POST CARCINOGEN TREATMENT (STUDY DURATION: 216 D), Route [Inhibitor]: ORAL, Species: MOUSE, Strain/Sex: BDF/MALE, Target Tissue: Type of Lesion: URINARY BLADDER: TRANSITIONAL CELL CARCINOMA, Dose [Carcinogen]: 7.5 MG 1/WK FOR 8 WK) is listed as 29/98 (30%), 15/97 (16%), 47%, p<0.05.
